From patent CN111743889A, “赤麻木脂素的新用途” (Shanghai Institute of Materia Medica of CAS, priority 2019, dated 2020)

Assays:
Format in all cases: cell-based
[1] = tested on: STAT3 transcription factor [STAT3转录因子]; experiment: STAT3 luciferase reporter gene assay (IL-6 induced); conditions: HepG2 cells stably transfected with reporter; IL-6 10 ng/ml induced; compound 1-40 μM, added 1 h before stimulus; read 5 h after
[2] = tested on: STAT1 transcription factor [STAT1转录因子]; experiment: STAT1 luciferase reporter gene assay (IFN-γ induced); conditions: HepG2 cells stably transfected with reporter; IFN-γ 10 ng/ml induced; compound 1-40 μM, added 1 h before stimulus; read 5 h after
[3] = tested on: NF-κB signalling pathway [NF-κB信号通路]; experiment: NF-κB luciferase reporter gene assay (TNF-α induced); conditions: HEK293 cells with reporter; TNF-α 10 ng/ml induced; compound 1-40 μM, added 1 h before stimulus; read 5 h after
STAT3 = experiment: Western blot, STAT3 phosphorylation; conditions: IL-6 induced, 10 min; compound 1, 5, 10, 20 μM, 1 h
STAT1 = experiment: Western blot, STAT1 phosphorylation; conditions: IFN-γ induced, 10 min; compound 1, 5, 10, 20 μM, 1 h
JAK1 = target: T1, JAK1 (Homo sapiens, UniProt P23458); experiment: Western blot, JAK1 phosphorylation; conditions: IL-6, IFN-γ and IFN-α induced, 10 min; compound 1, 5, 10, 20 μM, 1 h
T1 construct: 将细胞以每孔15万的量接种在24孔板内; endogenous in cells; HepG2 and HEK293 are the only lines named

JAK2 = target: T2, JAK2 (Homo sapiens, UniProt O60674); experiment: Western blot, JAK2 phosphorylation; conditions: IL-6, IFN-γ and IFN-α induced, 10 min; compound 1, 5, 10, 20 μM, 1 h
T2 construct: 将细胞以每孔15万的量接种在24孔板内; endogenous in cells; HepG2 and HEK293 are the only lines named
T2 sequence (O60674 whole entry): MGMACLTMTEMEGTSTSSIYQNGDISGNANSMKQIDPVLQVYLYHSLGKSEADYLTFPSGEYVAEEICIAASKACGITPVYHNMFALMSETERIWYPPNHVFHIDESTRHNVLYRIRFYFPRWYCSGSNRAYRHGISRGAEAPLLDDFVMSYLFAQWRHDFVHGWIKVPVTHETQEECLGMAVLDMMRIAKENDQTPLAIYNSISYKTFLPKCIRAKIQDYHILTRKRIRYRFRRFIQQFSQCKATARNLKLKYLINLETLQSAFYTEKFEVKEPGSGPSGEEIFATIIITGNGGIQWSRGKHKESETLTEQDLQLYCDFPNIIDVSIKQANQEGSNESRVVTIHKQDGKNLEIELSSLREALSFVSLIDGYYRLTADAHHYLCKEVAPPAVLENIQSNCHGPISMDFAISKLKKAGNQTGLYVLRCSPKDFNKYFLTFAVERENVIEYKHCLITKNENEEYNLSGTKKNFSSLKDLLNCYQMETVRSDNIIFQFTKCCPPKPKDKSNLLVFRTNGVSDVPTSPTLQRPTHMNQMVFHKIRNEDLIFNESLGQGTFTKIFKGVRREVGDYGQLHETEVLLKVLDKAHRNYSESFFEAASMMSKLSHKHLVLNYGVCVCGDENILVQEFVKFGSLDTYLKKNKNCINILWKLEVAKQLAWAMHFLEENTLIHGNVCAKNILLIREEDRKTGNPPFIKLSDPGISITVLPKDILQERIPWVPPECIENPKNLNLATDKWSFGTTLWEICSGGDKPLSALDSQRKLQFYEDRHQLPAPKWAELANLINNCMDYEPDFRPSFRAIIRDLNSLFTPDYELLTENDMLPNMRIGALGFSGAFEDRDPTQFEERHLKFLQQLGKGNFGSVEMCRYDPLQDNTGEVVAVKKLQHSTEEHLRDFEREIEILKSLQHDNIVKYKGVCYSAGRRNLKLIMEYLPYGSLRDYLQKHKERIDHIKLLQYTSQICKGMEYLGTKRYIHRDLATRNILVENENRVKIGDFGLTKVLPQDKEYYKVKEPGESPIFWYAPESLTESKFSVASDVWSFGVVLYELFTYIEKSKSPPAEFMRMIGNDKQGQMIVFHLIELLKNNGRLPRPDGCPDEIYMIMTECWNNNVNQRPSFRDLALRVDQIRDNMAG

TYK2 = target: T3, TYK2 (Homo sapiens, UniProt P29597); experiment: Western blot, TYK2 phosphorylation; conditions: IL-6, IFN-γ and IFN-α induced, 10 min; compound 1, 5, 10, 20 μM, 1 h
T3 construct: 将细胞以每孔15万的量接种在24孔板内; endogenous in cells; HepG2 and HEK293 are the only lines named

PDGFRα = target: T4, PDGFRα (Homo sapiens, UniProt P16234); experiment: Western blot, PDGFRα phosphorylation; conditions: same concentrations (1, 5, 10, 20 μM), 1 h
T4 construct: 将细胞以每孔15万的量接种在24孔板内; endogenous in cells

PDGFRβ = target: T5, PDGFRβ (Homo sapiens, UniProt P09619); experiment: Western blot, PDGFRβ phosphorylation; conditions: same concentrations (1, 5, 10, 20 μM), 1 h
T5 construct: 将细胞以每孔15万的量接种在24孔板内; endogenous in cells
T5 sequence (P09619 33-1106): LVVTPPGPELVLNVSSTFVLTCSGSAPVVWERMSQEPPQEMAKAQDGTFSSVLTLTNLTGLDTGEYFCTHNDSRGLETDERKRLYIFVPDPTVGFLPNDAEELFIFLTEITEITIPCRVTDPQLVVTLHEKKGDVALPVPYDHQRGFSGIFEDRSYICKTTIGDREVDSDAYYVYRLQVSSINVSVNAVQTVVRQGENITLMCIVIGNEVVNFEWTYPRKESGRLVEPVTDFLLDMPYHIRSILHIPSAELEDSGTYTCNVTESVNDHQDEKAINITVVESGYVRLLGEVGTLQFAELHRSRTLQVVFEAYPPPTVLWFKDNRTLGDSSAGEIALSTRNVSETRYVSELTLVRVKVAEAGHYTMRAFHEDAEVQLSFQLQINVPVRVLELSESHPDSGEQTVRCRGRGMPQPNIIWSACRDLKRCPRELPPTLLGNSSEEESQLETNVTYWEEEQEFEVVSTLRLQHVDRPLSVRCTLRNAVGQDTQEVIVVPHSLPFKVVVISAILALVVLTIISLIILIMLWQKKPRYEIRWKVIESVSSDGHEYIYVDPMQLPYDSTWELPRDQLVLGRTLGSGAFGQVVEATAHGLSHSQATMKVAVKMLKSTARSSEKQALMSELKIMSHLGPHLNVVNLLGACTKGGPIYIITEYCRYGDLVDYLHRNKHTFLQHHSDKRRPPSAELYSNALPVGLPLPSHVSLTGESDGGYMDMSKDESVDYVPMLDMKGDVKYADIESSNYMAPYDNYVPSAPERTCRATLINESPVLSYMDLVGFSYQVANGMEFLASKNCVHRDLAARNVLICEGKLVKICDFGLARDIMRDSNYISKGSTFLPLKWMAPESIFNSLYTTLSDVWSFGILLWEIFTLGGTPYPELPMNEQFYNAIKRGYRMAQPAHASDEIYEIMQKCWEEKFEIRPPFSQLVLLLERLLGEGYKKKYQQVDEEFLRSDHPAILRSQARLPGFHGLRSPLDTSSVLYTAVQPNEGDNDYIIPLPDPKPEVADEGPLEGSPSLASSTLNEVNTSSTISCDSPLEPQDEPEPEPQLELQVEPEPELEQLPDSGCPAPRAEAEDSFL

EGFR = target: T6, EGFR (Homo sapiens, UniProt P00533); experiment: Western blot, EGFR phosphorylation; conditions: same concentrations (1, 5, 10, 20 μM), 1 h
T6 construct: 将细胞以每孔15万的量接种在24孔板内; endogenous in cells
T6 sequence (P00533 25-1210): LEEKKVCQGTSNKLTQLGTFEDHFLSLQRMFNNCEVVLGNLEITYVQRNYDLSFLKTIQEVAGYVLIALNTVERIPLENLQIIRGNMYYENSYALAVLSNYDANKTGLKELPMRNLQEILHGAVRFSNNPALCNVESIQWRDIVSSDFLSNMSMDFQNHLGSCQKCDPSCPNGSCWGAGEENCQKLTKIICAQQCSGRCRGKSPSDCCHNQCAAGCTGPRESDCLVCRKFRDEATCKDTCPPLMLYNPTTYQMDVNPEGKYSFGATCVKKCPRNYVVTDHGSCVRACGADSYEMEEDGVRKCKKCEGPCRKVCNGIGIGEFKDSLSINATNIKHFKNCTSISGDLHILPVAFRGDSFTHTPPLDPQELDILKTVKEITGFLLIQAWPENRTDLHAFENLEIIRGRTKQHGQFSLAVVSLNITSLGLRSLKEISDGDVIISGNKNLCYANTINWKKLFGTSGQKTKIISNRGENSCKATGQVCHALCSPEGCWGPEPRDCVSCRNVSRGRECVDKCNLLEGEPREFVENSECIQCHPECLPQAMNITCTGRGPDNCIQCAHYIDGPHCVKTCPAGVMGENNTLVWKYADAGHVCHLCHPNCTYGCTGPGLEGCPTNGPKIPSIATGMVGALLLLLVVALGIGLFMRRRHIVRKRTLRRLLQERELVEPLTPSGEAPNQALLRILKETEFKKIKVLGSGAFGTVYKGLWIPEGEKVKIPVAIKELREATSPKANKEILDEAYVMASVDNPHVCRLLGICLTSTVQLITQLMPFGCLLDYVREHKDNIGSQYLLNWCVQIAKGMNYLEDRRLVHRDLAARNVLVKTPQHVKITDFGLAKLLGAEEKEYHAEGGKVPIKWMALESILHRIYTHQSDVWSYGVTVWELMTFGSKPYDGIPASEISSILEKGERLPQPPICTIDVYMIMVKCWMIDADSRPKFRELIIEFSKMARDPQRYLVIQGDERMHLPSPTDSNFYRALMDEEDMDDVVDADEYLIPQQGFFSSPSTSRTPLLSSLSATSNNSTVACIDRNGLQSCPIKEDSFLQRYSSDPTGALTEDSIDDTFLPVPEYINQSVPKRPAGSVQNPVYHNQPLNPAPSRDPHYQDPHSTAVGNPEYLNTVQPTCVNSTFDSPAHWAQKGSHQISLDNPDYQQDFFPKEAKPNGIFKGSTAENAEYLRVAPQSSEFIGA

IGF1R = target: T7, IGF1R (Homo sapiens, UniProt P08069); experiment: Western blot, IGF1R phosphorylation; conditions: same concentrations (1, 5, 10, 20 μM), 1 h
T7 construct: 将细胞以每孔15万的量接种在24孔板内; endogenous in cells
T7 sequence (P08069 31-1367): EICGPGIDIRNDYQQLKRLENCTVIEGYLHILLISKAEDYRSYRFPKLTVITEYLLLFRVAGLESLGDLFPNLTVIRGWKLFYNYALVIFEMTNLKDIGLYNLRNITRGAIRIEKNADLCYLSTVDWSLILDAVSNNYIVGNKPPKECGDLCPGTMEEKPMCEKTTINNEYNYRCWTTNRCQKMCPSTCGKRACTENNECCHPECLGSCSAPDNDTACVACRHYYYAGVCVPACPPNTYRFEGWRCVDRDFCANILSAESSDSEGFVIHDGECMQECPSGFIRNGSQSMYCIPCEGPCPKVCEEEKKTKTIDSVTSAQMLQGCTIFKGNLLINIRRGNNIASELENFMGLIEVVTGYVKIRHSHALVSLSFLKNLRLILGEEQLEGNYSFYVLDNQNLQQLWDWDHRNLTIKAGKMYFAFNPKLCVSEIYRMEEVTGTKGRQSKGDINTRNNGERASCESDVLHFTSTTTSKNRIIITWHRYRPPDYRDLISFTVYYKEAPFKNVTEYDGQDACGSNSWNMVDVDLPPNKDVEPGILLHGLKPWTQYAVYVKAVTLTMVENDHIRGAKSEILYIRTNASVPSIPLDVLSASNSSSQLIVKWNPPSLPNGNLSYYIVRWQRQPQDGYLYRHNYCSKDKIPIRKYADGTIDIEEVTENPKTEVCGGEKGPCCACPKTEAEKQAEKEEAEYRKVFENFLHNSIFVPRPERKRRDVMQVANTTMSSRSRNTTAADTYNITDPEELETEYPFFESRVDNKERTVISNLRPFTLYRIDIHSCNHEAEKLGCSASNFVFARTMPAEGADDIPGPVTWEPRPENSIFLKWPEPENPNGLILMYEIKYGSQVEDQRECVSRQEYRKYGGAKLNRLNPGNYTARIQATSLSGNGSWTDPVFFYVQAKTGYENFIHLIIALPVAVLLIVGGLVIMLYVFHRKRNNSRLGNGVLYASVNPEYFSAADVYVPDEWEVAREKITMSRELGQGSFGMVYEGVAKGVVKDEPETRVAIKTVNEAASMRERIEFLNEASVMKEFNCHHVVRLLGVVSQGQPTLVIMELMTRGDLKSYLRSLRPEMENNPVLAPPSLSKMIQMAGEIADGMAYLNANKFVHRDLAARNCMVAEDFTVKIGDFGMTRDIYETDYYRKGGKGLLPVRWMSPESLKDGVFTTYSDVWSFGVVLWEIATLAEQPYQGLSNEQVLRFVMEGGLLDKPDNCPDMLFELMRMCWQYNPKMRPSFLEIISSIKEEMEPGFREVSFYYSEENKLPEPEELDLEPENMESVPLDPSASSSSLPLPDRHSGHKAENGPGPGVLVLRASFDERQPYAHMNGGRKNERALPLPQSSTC

IκBα = experiment: Western blot, IκBα phosphorylation; conditions: TNF-α induced, 10 min; compound 1, 5, 10, 20 μM, 1 h
IKK-α/β = experiment: Western blot, IKK-α/β phosphorylation; conditions: TNF-α induced, 10 min; compound 1, 5, 10, 20 μM, 1 h

- inhibition of transcriptional activity of STAT3 transcription factor (luciferase) [1]: 剂量依赖性的抑制
- inhibition of transcriptional activity of STAT1 transcription factor (luciferase) [2]: 剂量依赖性的抑制
- inhibition of NF-κB signalling pathway (NF-κB-dependent luciferase activity) [3]: 浓度依赖性的抑制
- inhibition of JAK phosphorylation (p-JAK1) (JAK1): 抑制
- inhibition of JAK phosphorylation (p-JAK2) (JAK2): 抑制
- inhibition of JAK phosphorylation (p-TYK2) (TYK2): 抑制
- effect on phosphorylation of other tyrosine kinases (PDGFRα) (PDGFRα): 没有抑制作用
- effect on phosphorylation of other tyrosine kinases (PDGFRβ) (PDGFRβ): 没有抑制作用
- effect on phosphorylation of other tyrosine kinases (EGFR) (EGFR): 没有抑制作用
- effect on phosphorylation of other tyrosine kinases (IGF1R) (IGF1R): 没有抑制作用
SMILES: COc1cc(C=CC(=O)OCCCc2cc(OC)c3c(c2)C(COC(=O)C=Cc2ccc(O)c(OC)c2)C(c2ccc(O)c(OC)c2)O3)ccc1O (centres unmarked) [赤麻木脂素, 3-(4-Hydroxy-3-methoxyphenyl)propenoic acid 3-[2,3-dihydro-2-(4-hydroxy-3-methoxyphenyl)-3-[[[3-(4-hydroxy-3-methoxyphenyl)-1-oxo-2-propenyl]oxy]methyl]-7-methoxybenzofuran-5-yl]propyl ester]
- inhibition of STAT3 phosphorylation (STAT3): 抑制
- inhibition of STAT1 phosphorylation (STAT1): 抑制
- inhibition of IκBα phosphorylation (IκBα): 抑制
- inhibition of IKK-α/β phosphorylation (IKK-α/β): 抑制
